Assay results: publication PMC5989226 (Nature Communications, 2018)

What was measured:
Assay type in all cases: binding
[1] = molecular target: T1, DELAY OF GERMINATION1 (DOG1) (Arabidopsis thaliana, UniProt A0SVK0); experiment: UV-visible absorption titration of apo-DOG1 with hemin (Soret peak, […] nm), […] fit
T1 sequence (A0SVK0 1-291): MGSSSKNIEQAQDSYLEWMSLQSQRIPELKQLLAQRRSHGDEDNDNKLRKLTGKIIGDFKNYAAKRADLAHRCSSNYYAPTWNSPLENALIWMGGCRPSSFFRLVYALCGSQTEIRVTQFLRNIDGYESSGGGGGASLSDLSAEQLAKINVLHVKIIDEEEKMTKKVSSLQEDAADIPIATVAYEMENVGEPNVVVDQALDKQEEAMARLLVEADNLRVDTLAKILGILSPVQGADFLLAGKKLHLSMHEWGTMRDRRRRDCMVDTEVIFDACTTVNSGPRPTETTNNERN

[2] = molecular target: T2, DELAY OF GERMINATION1 (DOG1) (Arabidopsis thaliana, UniProt A0SVK0, H245A/H249A); experiment: UV-visible absorption hemin titration ([…] nm)
T2 construct: full-length, N-terminal His6-tagged

[3] = molecular target: T3, DELAY OF GERMINATION1 (DOG1) (Arabidopsis thaliana, UniProt A0SVK0, H245A); experiment: UV-visible absorption hemin titration ([…] nm)
T3 construct: full-length, N-terminal His6-tagged
T3 sequence (A0SVK0 whole entry H245A): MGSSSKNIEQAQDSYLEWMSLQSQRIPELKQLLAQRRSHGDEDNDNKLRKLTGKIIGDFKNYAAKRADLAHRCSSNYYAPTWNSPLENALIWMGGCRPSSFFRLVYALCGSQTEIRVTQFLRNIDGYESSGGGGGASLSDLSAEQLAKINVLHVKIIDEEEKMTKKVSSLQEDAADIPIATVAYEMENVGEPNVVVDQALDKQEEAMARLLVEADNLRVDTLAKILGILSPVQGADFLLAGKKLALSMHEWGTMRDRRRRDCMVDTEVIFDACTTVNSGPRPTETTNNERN

T2 sequence (A0SVK0 whole entry H245A/H249A): as the sequence (A0SVK0 whole entry H245A) above, with H249A counted along it

Compound `C=CC1=C(C)C2=Cc3c(C=C)c(C)c4[n]3[Fe]([Cl])[n]3c(c(C)c(CCC(=O)O)c3=CC3=NC(=C4)C(C)=C3CCC(=O)O)=CC1=N2` [hemin] has a Kd [1] of 59 nM, a Kd [2] of 918 nM and a Kd [3] of 129 nM.
